Experimental data published in patent US6620828B2, “Thiazole compounds and pharmaceutical compositions for inhibiting protein kinases and methods for their use” (Agouron Pharmaceuticals, Inc., priority 1999, dated 2003).
Values joined by “and” are separate entries in the source; they are usually repeats but may differ in a detail not shown here. Equal entries are not always repeated.

Columns and labels:
CHK1 = target: T1, CHK1 (Homo sapiens, UniProt O14757); test: CHK1 high-throughput screening; assay type: biochemical; conditions: for % inhibition @ 20 μM: Table 4, repeated entries per example; for inhibition at 20 µM: read-out: % inhibition @ 20 μM, Table 4, repeated entries per example
T1 sequence (O14757 1-476): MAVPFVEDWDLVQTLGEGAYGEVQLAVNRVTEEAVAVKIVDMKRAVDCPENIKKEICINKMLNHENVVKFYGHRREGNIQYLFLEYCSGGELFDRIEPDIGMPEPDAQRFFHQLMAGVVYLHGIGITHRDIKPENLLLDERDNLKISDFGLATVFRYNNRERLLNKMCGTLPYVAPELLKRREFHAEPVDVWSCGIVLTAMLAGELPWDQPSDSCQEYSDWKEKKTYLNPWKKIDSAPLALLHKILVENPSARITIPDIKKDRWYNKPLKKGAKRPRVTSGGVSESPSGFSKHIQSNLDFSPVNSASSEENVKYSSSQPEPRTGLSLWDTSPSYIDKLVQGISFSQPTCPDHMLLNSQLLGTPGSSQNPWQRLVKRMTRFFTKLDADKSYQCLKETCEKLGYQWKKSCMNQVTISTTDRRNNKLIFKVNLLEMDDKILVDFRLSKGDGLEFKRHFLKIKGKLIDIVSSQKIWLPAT

CDK2/Cyclin A complex = CDK2/Cyclin A complex (Homo sapiens, UniProt P24941); test: CDK2/Cyclin A assay; assay type: biochemical; conditions: Table 2; for CDK2 % inhibition @ 100: at 100 (printed 100 or 100 μM)
Method in brief: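 Radiometric assay: 150 nM CDK2/cyclin A (insect-cell CDK2, truncated cyclin A) phosphorylates His-tagged Rb fragment (residues 386-928) with 25 μM ATP plus [32P]ATP, pH 7.4 HEPES, 2% DMSO, 30 °C for 20 min. Filter-captured product counted by phosphorimager; apparent Ki from competitive or tight-binding inhibition fits.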

[1] = target: T2, phosphorylated VEGF-R2Δ50 (Homo sapiens, UniProt P35968, DEL940-989/E990V); test: VEGF-R2 ELISA assay; assay type: biochemical; conditions: Table 2; * determined with ELISA assay; read-out: FLVK-P Ki
T2 construct: VEGF-R2Δ50 contains residues 806-939 and 990-1171; made in house; host or cells: baculovirus/insect cells
Method in brief: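 Pre-autophosphorylated human VEGF-R2Δ50 (residues 806-939/990-1171, E990V; baculovirus) at 0.8 nM was run with 2 μM biotin-gastrin(1-17), 20 μM ATP, 26 mM MgCl2, 2 mM MnCl2, pH 7.5 Hepes. Phosphopeptide was captured on streptavidin and detected by anti-pTyr-HRP/ABTS at 405 nm; Ki came from activity at varying compound concentrations.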

FAKcd409 = target: T3, FAKcd409 (Homo sapiens, UniProt Q05397, P410T); test: FAK HTS assay; assay type: biochemical; conditions: 10 uM compound, HTS Delphia assay
T3 construct: comprises residues methionine 409 to glutamate 689; made in house; host or cells: baculovirus vector expression system

CDK4/Cyclin D3 complex = target: T4, CDK4/Cyclin D3 complex (Homo sapiens, UniProt P11802); test: CDK4/Cyclin D assay; assay type: biochemical; conditions: Table 2; for inhibition at 100 µM: at 100 (printed 100 or 100 μM)
T4 construct: made in house; host or cells: insect cells co-infected with baculovirus vectors
Method in brief: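 Insect-cell-expressed CDK4/cyclin D3 (50 nM) phosphorylating His-tagged Rb fragment (residues 386-928) with 25 μM [^32P]ATP in HEPES pH 7.4, MgCl2, 2% DMSO; 20 min at 30 °C, EDTA stop. Filter-captured 32P by phosphorimager; apparent Ki from competitive or tight-binding inhibition fits.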

[2] = target: T5, phosphorylated VEGF-R2Δ50 (FLVK-P) (Homo sapiens, UniProt P35968, DEL940-989/E990V); test: VEGF-R2 coupled spectrophotometric (FLVK-P) assay; assay type: biochemical; conditions: for Ki: spectrophotometric assay
T5 construct: VEGF-R2Δ50 contains residues 806-939 and 990-1171; made in house; host or cells: baculovirus/insect cells
Method in brief: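 Baculovirus-expressed human VEGF-R2Δ50 (residues 806-939/990-1171, E990V) was autophosphorylated with 3 mM ATP, 40 mM MgCl2 for 2 h at 4° C. ADP formation was coupled via PK/LDH to NADH oxidation, read at 340 nm, with 5.1 mM poly(E4Y1), 1 mM ATP, 25 mM MgCl2, Hepes pH 7.5. Ki came from activity across compound concentrations.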

FGF-R1 = target: T6, FGF-R1 (Homo sapiens, UniProt P11362, C488A/C584S/L457V); test: FGF-R spectrophotometric assay; assay type: biochemical; conditions: Table 2; at 5 (head μM)
T6 construct: starting from the endogenous methionine residue 456 to glutamate 766; made in house; host or cells: baculovirus vector expression system
Method in brief: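 Kinase domain (Met456–Glu766, baculovirus-expressed) used at 50 nM in a spectrophotometric assay run as for VEGF-R2. Substrates were 2 mM ATP and 15 mM poly(E4Y1).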

FL-CHK1 = target: T7, FL-CHK1 (Homo sapiens, UniProt O14757); test: CHK1 assay; assay type: biochemical; conditions: Table 2; read-out: CHK-1 Ki
T7 construct: C-terminally His-tagged full-length human CHK1 (FL-CHK1); 6xHis (C); made in house; host or cells: baculovirus/insect cells
T7 sequence (O14757 1-476): T1 sequence (O14757 1-476)
Method in brief: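 Full-length human CHK1 with C-terminal 6×His tag, made in baculovirus/insect cells, 10 nM, phosphorylating 0.125 mM Syntide-2 with 0.15 mM ATP in 50 mM Tris pH 7.5, 25 mM MgCl2, 400 mM NaCl. PK/LDH-coupled NADH oxidation read at 340 nm. Ki from initial rates over varied compound concentrations.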

[3] = system: lung cancer cells (line MV522); test: Cancer cell proliferation (MV522) assay; assay type: cell-based; conditions: MV522, Table 1
[4] = system: human umbilical vein endothelial cells (HUVEC); test: HUVEC proliferation assay; assay type: cell-based; conditions: Homo sapiens, HUVEC, Table 1
Method in brief: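 Readout was MTT dye reduction (A595) after 72 h of stimulation with VEGF at 6 ng/ml final. Compound, in 0.1% DMSO final, was added 1 h before VEGF to HUVEC starved 24 h in 1% FBS. % inhibition was scaled between VEGF-alone and unstimulated wells; IC50 was fitted from triplicate dose curves.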

T2 sequence (P35968 with tags, fused parts or gaps DEL940-989/E990V limits assumed): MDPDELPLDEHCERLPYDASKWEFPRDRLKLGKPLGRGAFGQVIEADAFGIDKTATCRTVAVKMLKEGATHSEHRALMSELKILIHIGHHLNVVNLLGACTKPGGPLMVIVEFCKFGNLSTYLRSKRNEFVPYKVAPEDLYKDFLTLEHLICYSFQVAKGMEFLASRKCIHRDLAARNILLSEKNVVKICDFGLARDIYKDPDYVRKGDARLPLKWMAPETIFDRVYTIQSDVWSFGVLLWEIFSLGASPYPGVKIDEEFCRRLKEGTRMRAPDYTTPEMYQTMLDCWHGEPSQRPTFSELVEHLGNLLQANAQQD
T5 sequence (P35968 with tags, fused parts or gaps DEL940-989/E990V limits assumed): as above
T4 sequence (P11802 whole entry): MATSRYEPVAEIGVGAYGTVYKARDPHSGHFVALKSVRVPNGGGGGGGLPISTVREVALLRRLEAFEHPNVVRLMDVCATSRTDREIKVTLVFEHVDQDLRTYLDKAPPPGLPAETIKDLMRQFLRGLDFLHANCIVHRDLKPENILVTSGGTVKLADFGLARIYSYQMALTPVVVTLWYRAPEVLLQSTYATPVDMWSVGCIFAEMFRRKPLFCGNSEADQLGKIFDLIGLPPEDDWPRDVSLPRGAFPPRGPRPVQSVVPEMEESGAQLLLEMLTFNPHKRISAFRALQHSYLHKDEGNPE
T4 sequence (P30281 whole entry partner): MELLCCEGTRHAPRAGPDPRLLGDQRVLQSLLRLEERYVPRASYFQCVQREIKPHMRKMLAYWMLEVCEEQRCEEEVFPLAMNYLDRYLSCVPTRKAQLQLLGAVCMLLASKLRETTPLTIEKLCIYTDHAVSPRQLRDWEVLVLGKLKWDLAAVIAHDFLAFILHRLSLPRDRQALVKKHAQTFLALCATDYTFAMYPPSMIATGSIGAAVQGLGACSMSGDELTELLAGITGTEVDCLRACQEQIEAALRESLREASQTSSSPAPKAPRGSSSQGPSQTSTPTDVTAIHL
T3 sequence (Q05397 409-689 P410T): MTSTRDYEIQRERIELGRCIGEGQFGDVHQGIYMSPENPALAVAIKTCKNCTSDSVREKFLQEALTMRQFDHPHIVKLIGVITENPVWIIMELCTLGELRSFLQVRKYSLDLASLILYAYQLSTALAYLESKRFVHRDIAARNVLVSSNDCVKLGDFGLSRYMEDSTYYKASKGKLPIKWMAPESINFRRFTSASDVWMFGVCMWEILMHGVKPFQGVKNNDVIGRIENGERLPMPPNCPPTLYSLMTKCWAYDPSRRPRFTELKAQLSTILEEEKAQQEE
T6 sequence (P11362 456-766 L457V/C488A/C584S): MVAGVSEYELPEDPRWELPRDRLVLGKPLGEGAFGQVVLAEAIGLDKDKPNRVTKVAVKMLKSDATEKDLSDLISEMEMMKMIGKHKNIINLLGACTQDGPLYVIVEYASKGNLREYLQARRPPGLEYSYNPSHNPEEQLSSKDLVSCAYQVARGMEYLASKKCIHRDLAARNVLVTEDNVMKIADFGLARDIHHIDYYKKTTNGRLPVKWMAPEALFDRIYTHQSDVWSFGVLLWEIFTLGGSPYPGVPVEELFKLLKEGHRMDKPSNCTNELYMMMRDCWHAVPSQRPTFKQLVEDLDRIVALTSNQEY

| % inhibition @ 20 μM (CHK1) | Ki (CDK2/Cyclin A complex) [nM] | Ki [1] [nM] | melting point | Ki (CDK4/Cyclin D3 complex) [nM] | % inhibition of FAK (FAKcd409; 10 µM) | inhibition at 20 µM (CHK1) [%] | SMILES | further results |
| --- | --- | --- | --- | --- | --- | --- | --- | --- |
| 2.8% and −1.9% | 2500 | 64000 | 231 to 235 °C (dec.) | 8400 | – | – | COc1ccccc1-c1csc(-c2sc(Nc3ccc(S(N)(=O)=O)cc3)nc2N)n1 [A(3), 4-[4′-Amino-4-(2-methoxy-phenyl)-[2,5′]bithiazolyl-2′-ylamino]-benzenesulfonamide] | % inhibition of FAK (FAKcd409): −9% |
| – | – | 1900 | 180 to 183 °C (dec.) | – | −6% and −5% and 4% | – | COc1cc(Nc2nc(N)c(-c3nc(-c4ccc(F)cc4F)cs3)s2)cc(OC)c1OC [A(9), 4-(2,4-Difluoro-phenyl)-N^2′-(3,4,5-trimethoxy-phenyl)-[2,5′]bithiazolyl-2′,4′-diamine] | CDK2 % inhibition @ 100 (CDK2/Cyclin A complex): 29% @; inhibition at 100 µM (CDK4/Cyclin D3 complex): < 0% |
| – | 13400 | – | 129 to 133 °C (dec.) | 9100 | −2% and −5% and −4% | – | COc1cc(Nc2nc(N)c(-c3nc(-c4ccc(O)cc4)cs3)s2)cc(OC)c1OC [A(10), 4-[4′-Amino-2′-(3,4,5-trimethoxy-phenylamino)-[2,5′]bithiazolyl-4-yl]-phenol] | Ki ([2]; Table 2): 28 nM; FGF-R % inhibition @ 5 (FGF-R1): 45% @ |
| −4.1% and −1.2% | 2700 | 25000 | 130 to 135 °C (dec.) | 7800 | −9% and −7% and 0% | – | Cc1nc(-c2sc(Nc3ccc(S(N)(=O)=O)cc3)nc2N)sc1Cc1ccc(F)cc1 [A(15), 4-[4′-Amino-5-(4-fluoro-benzyl)-4-methyl-[2,5′]bithiazolyl-2′-ylamino]-benzenesulfonamide] | – |
| – | – | 100 | 208 to 212 °C (dec.) | – | 60% and 47% and 57% and 90% and 88% | 19.7 | COc1cc(Nc2nc(N)c(-c3nc(-c4cc(O)ccc4O)cs3)s2)cc(OC)c1OC [A(25), 2-(4′-Amino-2′-(3,4,5-trimethoxy-phenylamino)-[2,5′]bithiazolyl-4-yl]-benzene-1,4-diol] | Ki (FL-CHK1): 290 nM |
| – | – | 390000 | – | – | −5% and −9% and −10% | – | COc1cc(Nc2nc(N)c(-c3nc(-c4cccc(C(=O)Nc5ccc6nc(C)ccc6c5)c4)cs3)s2)cc(OC)c1OC [A(35), 3-[4′-Amino-2′-(3,4,5-trimethoxy-phenylamino)-[2,5′]bithiazolyl-4-yl]-N-(2-methyl-quinolin-6-yl)-benzamide] | – |
| – | – | – | – | – | −6% and −11% and −15% | 2.8 | Cc1ccc(Nc2nc(N)c(-c3nc(-c4cccc(NC(=O)OCc5ccccc5)c4)cs3)s2)cc1 [A(36), [3-(4′-Amino-2′-p-tolylamino-[2,5′]bithiazolyl-4-yl)-phenyl]-carbamic acid benzyl ester] | FLVK-P % inhibition @ 0.05 ([2]; Table 1, at 0.05, concentration unit not printed (head nM)): 36% @ |
| – | – | – | – | – | −13% and −4% and −6% | -1 | Nc1nc(Nc2ccc3c(c2)OCCO3)sc1-c1nc(-c2cccc(NC(=O)c3ccccc3)c2)cs1 [A(45), N-{3-[4′-Amino-2′-(2,3-dihydro-benzo[1,4]dioxin-6-ylamino)-[2,5′]bithiazolyl-4-yl]-phenyl}-benzamide] | Ki ([2]; Table 1): 9.7 nM |
| – | – | – | – | – | −2% and −8% | 1.3 | CC(=O)Nc1cc(Nc2nc(N)c(-c3nc(-c4cccc(NC(=O)c5ccccc5)c4)cs3)s2)ccc1C [A(48), N-{3-[2′-(3-Acetylamino-4-methyl-phenylamino)-4′-amino-[2,5′]bithiazolyl-4-yl]-phenyl}-benzamide] | IC50 [3]: > 10000 nM; Ki ([2]; Table 1): 3.1 nM; IC50 [4]: 350 nM |
| – | – | – | – | – | −10% and −8% | 4 | Nc1nc(Nc2cccnc2)sc1-c1nc(-c2cccc(NC(=O)c3ccccc3)c2)cs1 [A(53), 3-(4′-Amino-4-(3-benzamidophenyl)-[2,5′]bithiazolyl-2′-ylamino)-pyridine] | IC50 [3]: > 10000 nM; Ki ([2]; Table 1): 24 nM; IC50 [4]: 370 nM |
| 12.2% | 530 | – | 200 to 202 °C | 4400 | 6% | 7.4 | C=CCOc1cc(O)cc(-c2csc(-c3sc(Nc4ccc(S(N)(=O)=O)cc4)nc3N)n2)c1 [A(62), 4-[4-(3-Allyloxy-5-hydroxyphenyl)-4′-amino-[2,5′]bithiazolyl-2′-ylamino]-benzenesulfonamide] | inhibition at 10 µM (FAKcd409): 7% |
| 3.2% and 2.5% and 8.2% | 150 | – | 190 to 193 °C (dec.) | 2100 | −31% and −39% | – | COc1ccc(/C=C/c2csc(-c3sc(Nc4ccc(S(N)(=O)=O)cc4)nc3N)n2)cc1O [A(65), 4-{4′-Amino-4-[2-(3-hydroxy-4-methoxy-phenyl)-ethenyl]-[2,5′]bithiazolyl-2′-ylamino}-benzenesulfonamide] | – |
| 3.6% and 6.6% and 9.1% | 1100 | – | 193 to 195 °C (dec.) | – | −38% and −39% | – | Nc1nc(Nc2ccc(S(N)(=O)=O)cc2)sc1-c1nc(/C=C/C=C/c2ccccc2)cs1 [A(66), 4-[4′-Amino-4-(4-phenyl-buta-1,3-dienyl)-[2,5′]bithiazolyl-2′-ylamino]-benzenesulfonamide] | – |
| – | 15 | – | 255 to 260 °C (dec.) | 670 | −29% and −33% | – | Nc1nc(Nc2ccc(S(N)(=O)=O)cc2)sc1-c1nc(C(=O)c2ccccc2)cs1 [A(67), 4-(4′-Amino-4-benzoyl-[2,5′]bithiazolyl-2′-ylamino)-benzenesulfonamide] | Ki ([2]; Table 2): 110 nM |
| 14.4% and 7.3% | – | – | – | – | −23% and −30% | 14.3 | CCOC(=O)c1nc(-c2sc(Nc3ccc(S(N)(=O)=O)cc3)nc2N)sc1Cc1ccccc1 [A(73), 4′-Amino-5-benzyl-2′-(4-sulfamoyl-phenylamino)-[2,5′]bithiazolyl-4-carboxylic acid ethyl ester] | CDK2 % inhibition @ 100 (CDK2/Cyclin A complex): 36% @; inhibition at 100 µM (CDK4/Cyclin D3 complex): < 0% |
